Measured values published in article PMC10786919, “Design-rules for stapled peptides with in vivo activity and their application to Mdm2/X antagonists” (Nature Communications, 2024).
Converted amounts (≈) assume the structure as drawn. Read-outs that look alike come from different tables or passages of the source. Positions of bridges follow the written chain, without caps; N, C: chain ends. Non-standard residues stand in square brackets, D forms with d. Residues, ends and D or L forms follow the SMILES beside them. Lys(N3) = [N-]=[N+]=NCCCC[C@H](N)C(=O)O; R8 = C=CCCCCCC[C@@](C)(N)C(=O)O; Cba = N[C@@H](CC1CCC1)C(=O)O; S5 = C=CCCC[C@](C)(N)C(=O)O; βAla = NCCC(=O)O

Tests used:
[1] = Lactate dehydrogenase (LDH) release assay; type: cell-based
Procedure, shortened: (§1)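 HCT116 cells stably carrying a p53-responsive β-lactamase reporter were seeded at 8000 cells per well with a final DMSO level of 0.5%. Membrane integrity was assessed by lactate dehydrogenase release using a homogeneous fluorometric kit. Values are geometric means of at least three biological replicates.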

HCT116 cells = experiment: Lactate dehydrogenase (LDH) release assay; type: cell-based
Procedure, shortened: as §1

[2] = Solubility assay (kinetic solubility, PBS pH 7); type: physicochemical; conditions: for solubility kinetic: pH 7, aqueous buffer, kinetic from dmso stock, read-out: Solubility
Procedure, shortened: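 Reference standards were made by diluting the 10 mM stock to 100 µM in acetonitrile:methanol:DMSO 10:80:10. Solubility in µM was calculated as the sample peak area divided by the standard peak area, multiplied by the standard concentration.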

[3] = Nanoclick permeability assay
Procedure, shortened: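 Azido-peptide permeability was read as loss of NanoBRET signal (donor 450 nm, acceptor 610 nm) after adding NanoBret618-azide at 10 μM final.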

[4] = Experimental LogD (partition coefficient); conditions: for logD: not stated, Partition Coeff LogD
[5] = 0% FBS 4Hr, read-out: LDH: Cytotoxicity assay EC50
[6] = Nanoclick permeability assay EC50

Row | SMILES | EC50 [1, 5] | LDH: Cytotoxicity assay % Effect (HCT116 cells; 0% FBS 4Hr) | Solubility [2] | Solubility ([2]; pH 7, PBS) | cell entry EC50 [3] | EPSA (physchem) | Partition Coeff LogD [4] | Partition Coeff LogD ([4]; experimental) | EC50 ([1]; 4 hours, 0% serum, read-out: LDH Cytotoxicity assay EC50) | LDH: Cytotoxicity assay % Effect (HCT116 cells; 0% FBS 16Hr) | solubility kinetic ([2]; pH 7, PBS) | logD [4] | EC50 ([1]; LDH: Cytotoxicity assay EC50) | cell entry EC50 [3, 6]
1 | CC(=O)N[C@@H](CCCCN=[N+]=[N-])C(=O)NCCC(=O)N[C@@H](CC(C)C)C(=O)N[C@@H](C)C(=O)N[C@@H](Cc1ccccc1)C(=O)N[C@]1(C)CCCCCCC=CCCC[C@@](C)(C(=O)N[C@@H](CO)C(=O)N[C@@H](C)C(=O)N[C@@H](C)C(N)=O)NC(=O)[C@H](CC2CCC2)NC(=O)[C@H](CCC(N)=O)NC(=O)[C@H](C)NC(=O)[C@H](Cc2c[nH]c3ccccc23)NC(=O)[C@H](Cc2ccc(O)cc2)NC(=O)[C@H](C)NC1=O [MP-961, AZIDE-ATSP-7041 (T2A,E5A)] (Ac-[Lys(N3)][βAla]LAF[R8]AYWAQ[Cba][S5]SAA-NH2; staple 6-13) | > 50000 nM | 4.443% | P.B. | Poorly Behaved | 272 nM | 206 A^2 | Poorly Behaved | P.B. |  |  |  |  |  | 
2 | CC(=O)N[C@@H](CCCCN=[N+]=[N-])C(=O)NCCC(=O)N[C@@H](C)C(=O)N[C@H](C(=O)N[C@@H](Cc1ccccc1)C(=O)N[C@]1(C)CCCCCCC=CCCC[C@@](C)(C(=O)N[C@@H](CO)C(=O)N[C@@H](C)C(=O)N[C@@H](C)C(N)=O)NC(=O)[C@H](CC2CCC2)NC(=O)[C@H](C)NC(=O)[C@H](C)NC(=O)[C@H](Cc2c[nH]c3ccccc23)NC(=O)[C@H](Cc2ccc(O)cc2)NC(=O)[C@H](CCC(=O)O)NC1=O)[C@@H](C)O [MP-959, AZIDE-ATSP-7041 (L1A,Q9A)] (Ac-[Lys(N3)][βAla]ATF[R8]EYWAA[Cba][S5]SAA-NH2; staple 6-13) | 976 nM | 12.11% |  |  | 126 nM | 218 A^2 |  |  | 980 nM | 5.8% | 106 µM (≈ 197 µg/mL) | 2.79 |  | 
3 | CC(=O)N[C@@H](CCCCN=[N+]=[N-])C(=O)NCCC(=O)N[C@@H](CC(C)C)C(=O)N[C@H](C(=O)N[C@@H](Cc1ccccc1)C(=O)N[C@]1(C)CCCCCCC=CCCC[C@@](C)(C(=O)N[C@@H](CO)C(=O)N[C@@H](C)C(=O)N[C@@H](C)C(N)=O)NC(=O)[C@H](CC2CCC2)NC(=O)[C@H](CCCCN)NC(=O)[C@H](C)NC(=O)[C@H](Cc2c[nH]c3ccccc23)NC(=O)[C@H](Cc2ccc(O)cc2)NC(=O)[C@H](CCC(=O)O)NC1=O)[C@@H](C)O [MP-550, AZIDE-ATSP-7041 (Q9K)] | > 50000 nM | 7.145% |  |  | 437 nM | 217 A^2 |  |  |  | 4.1% | 4 µM (≈ 7.88 µg/mL) | 3.08 |  | 
4 | CC(=O)N[C@@H](CCCCN=[N+]=[N-])C(=O)NCCC(=O)N[C@@H](CC(C)C)C(=O)N[C@@H](Cc1c[nH]cn1)C(=O)N[C@@H](Cc1ccccc1)C(=O)N[C@]1(C)CCCCCCC=CCCC[C@@](C)(C(=O)N[C@@H](CO)C(=O)N[C@@H](C)C(=O)N[C@@H](C)C(N)=O)NC(=O)[C@H](CC2CCC2)NC(=O)[C@H](CCC(N)=O)NC(=O)[C@H](C)NC(=O)[C@H](Cc2c[nH]c3ccccc23)NC(=O)[C@H](Cc2ccc(O)cc2)NC(=O)[C@H](CCC(=O)O)NC1=O [MP-174, AZIDE-ATSP-7041 (T2H)] | > 50000 nM | 2.115% |  |  | 50.6 nM | 225 A^2 |  |  |  | 21.18% |  | 2.84 |  | 
5 | CC(=O)N[C@@H](CCCCN=[N+]=[N-])C(=O)NCCC(=O)N[C@@H](CCCNC(=N)N)C(=O)N[C@H](C(=O)N[C@@H](Cc1ccccc1)C(=O)N[C@]1(C)CCCCCCC=CCCC[C@@](C)(C(=O)N[C@@H](CCCCN)C(=O)N[C@@H](C)C(=O)N[C@@H](C)C(N)=O)NC(=O)[C@H](CC2CCC2)NC(=O)[C@H](CCCNC(=N)N)NC(=O)[C@H](C)NC(=O)[C@H](Cc2c[nH]c3ccccc23)NC(=O)[C@H](Cc2ccc(O)cc2)NC(=O)[C@H](CCC(=O)O)NC1=O)[C@@H](C)O [MP-537] (Ac-[Lys(N3)][βAla]RTF[R8]EYWAR[Cba][S5]KAA-NH2; staple 6-13) |  |  |  |  |  | 224 A^2 |  |  |  |  | 140 µM (≈ 292 µg/mL) | 2.48 | 7290 nM | 87.9 nM
6 | CC(=O)N[C@@H](CCCCN=[N+]=[N-])C(=O)NCCC(=O)N[C@@H](CC(C)C)C(=O)N[C@H](C(=O)N[C@@H](Cc1ccccc1)C(=O)N[C@]1(C)CCCCCCC=CCCC[C@@](C)(C(=O)N[C@@H](CO)C(=O)N[C@@H](C)C(=O)N[C@@H](C)C(N)=O)NC(=O)[C@H](CC2CCC2)NC(=O)C(C)(C)NC(=O)[C@H](C)NC(=O)[C@H](Cc2c[nH]c3ccccc23)NC(=O)[C@H](Cc2ccc(O)cc2)NC(=O)[C@H](CCC(=O)O)NC1=O)[C@@H](C)O [MP-171] |  |  |  |  |  | 222 A^2 |  |  |  |  | 34 µM (≈ 65.5 µg/mL) | 3 | > 50000 nM | 195 nM
7 | CC(=O)N[C@@H](CCCCN=[N+]=[N-])C(=O)NCCC(=O)N[C@@H](CCCNC(=N)N)C(=O)N[C@H](C(=O)N[C@@H](Cc1ccccc1)C(=O)N[C@]1(C)CCCCCCC=CCCC[C@@](C)(C(=O)N[C@@H](CO)C(=O)N[C@@H](C)C(=O)N[C@@H](C)C(N)=O)NC(=O)[C@H](CC2CCC2)NC(=O)[C@H](CCCNC(=N)N)NC(=O)[C@H](C)NC(=O)[C@H](Cc2c[nH]c3ccccc23)NC(=O)[C@H](Cc2ccccc2)NC(=O)[C@H](CCC(=O)O)NC1=O)[C@@H](C)O [MP-538] (Ac-[Lys(N3)][βAla]RTF[R8]EFWAR[Cba][S5]SAA-NH2; staple 6-13) |  |  |  |  |  | 223 A^2 |  |  |  |  | 5 µM (≈ 10.1 µg/mL) | 3.16 | 6780 nM | 230 nM
8 | CSCC[C@H](NC(=O)[C@H](CO)NC(=O)[C@]1(C)CCCC=CCCCCCC[C@@](C)(NC(=O)[C@H](Cc2ccccc2)NC(=O)[C@H](Cc2ccc(O)cc2)NC(=O)[C@H](CC(C)C)NC(=O)CCNC(=O)[C@H](CCCCN=[N+]=[N-])NC(C)=O)C(=O)N[C@@H](CCC(=O)O)C(=O)N[C@@H](Cc2ccc(O)cc2)C(=O)N[C@@H](Cc2c[nH]c3ccccc23)C(=O)N[C@@H](C)C(=O)N[C@@H](CCC(N)=O)C(=O)N[C@@H](CC2CCC2)C(=O)N1)C(=O)N[C@@H](CC(C)C)C(N)=O [MP-543] (Ac-[Lys(N3)][βAla]LYF[R8]EYWAQ[Cba][S5]SML-NH2; staple 6-13) |  |  |  |  |  | 234 A^2 |  |  |  |  | 30.5 µM (≈ 65.1 µg/mL) | 3.56 | > 50600 nM | 139 nM
9 | CC(=O)N[C@@H](CCCCN=[N+]=[N-])C(=O)NCCC(=O)N[C@@H](CCCNC(=N)N)C(=O)N[C@@H](Cc1ccc(O)cc1)C(=O)N[C@@H](Cc1ccccc1)C(=O)N[C@]1(C)CCCCCCC=CCCC[C@@](C)(C(=O)N[C@@H](CO)C(=O)N[C@@H](C)C(=O)N[C@@H](Cc2ccccc2)C(N)=O)NC(=O)[C@H](CC2CCC2)NC(=O)[C@H](CCC(N)=O)NC(=O)[C@H](C)NC(=O)[C@H](Cc2c[nH]c3ccccc23)NC(=O)[C@H](Cc2ccc(O)cc2)NC(=O)[C@H](CCC(=O)O)NC1=O [MP-5546] (Ac-[Lys(N3)][βAla]RYF[R8]EYWAQ[Cba][S5]SAF-NH2; staple 6-13) |  |  |  |  |  | 256 A^2 |  |  |  |  | 2 µM (≈ 4.3 µg/mL) | 3.2 | > 50600 nM | 511 nM
10 | CC(=O)N[C@@H](CCCCN=[N+]=[N-])C(=O)NCCC(=O)N[C@@H](CCCNC(=N)N)C(=O)N[C@H](C(=O)N[C@@H](Cc1ccccc1)C(=O)N[C@]1(C)CCCCCCC=CCCC[C@@](C)(C(=O)N[C@@H](CO)C(=O)N[C@@H](C)C(=O)N[C@@H](CC(C)C)C(N)=O)NC(=O)[C@H](CC2CCC2)NC(=O)[C@H](CCC(N)=O)NC(=O)[C@H](CC(C)C)NC(=O)[C@H](Cc2c[nH]c3ccccc23)NC(=O)[C@H](Cc2ccc(O)cc2)NC(=O)[C@H](CCC(=O)O)NC1=O)[C@@H](C)O [MP-541] (Ac-[Lys(N3)][βAla]RTF[R8]EYWLQ[Cba][S5]SAL-NH2; staple 6-13) |  |  |  |  |  | 224 A^2 |  |  |  |  | 4 µM (≈ 8.39 µg/mL) | 3.58 | > 50600 nM | 210 nM
11 | CC(=O)N[C@@H](CCCCN=[N+]=[N-])C(=O)NCCC(=O)N[C@@H](CC(C)C)C(=O)N[C@H](C(=O)N[C@@H](Cc1ccccc1)C(=O)N[C@]1(C)CCCCCCC=CCCC[C@@](C)(C(=O)N[C@@H](CO)C(=O)N[C@@H](C)C(=O)N[C@@H](CC(C)C)C(N)=O)NC(=O)[C@H](CC2CCC2)NC(=O)[C@H](CCC(N)=O)NC(=O)[C@H](C)NC(=O)[C@H](Cc2c[nH]c3ccccc23)NC(=O)[C@H](Cc2c[nH]c3ccccc23)NC(=O)[C@H](Cc2c[nH]c3ccccc23)NC1=O)[C@@H](C)O [MP-544] (Ac-[Lys(N3)][βAla]LTF[R8]WWWAQ[Cba][S5]SAL-NH2; staple 6-13) |  |  |  | Poorly Behaved |  | 227 A^2 | Poorly Behaved |  |  |  |  |  | > 50600 nM | 124 nM
12 | CC(=O)N[C@@H](CCCCN=[N+]=[N-])C(=O)NCCC(=O)N(C)[C@@H](CC(C)C)C(=O)N[C@H](C(=O)N[C@@H](Cc1ccccc1)C(=O)N[C@]1(C)CCCCCCC=CCCC[C@@](C)(C(=O)N[C@@H](CO)C(=O)N[C@@H](C)C(=O)N[C@@H](C)C(N)=O)NC(=O)[C@H](CC2CCC2)NC(=O)[C@H](CCC(N)=O)NC(=O)[C@H](C)NC(=O)[C@H](Cc2c[nH]c3ccccc23)NC(=O)[C@H](Cc2ccc(O)cc2)NC(=O)[C@H](CCC(=O)O)NC1=O)[C@@H](C)O [MP-189] |  |  |  |  |  | 226 A^2 |  |  |  |  | 122 µM (≈ 242 µg/mL) | 3.04 | > 50000 nM | 865 nM
